Assay results: patent US11021511B2, “Cyclic dinucleotides as sting agonists” (Janssen Biotech, Inc., priority 2017, dated 2021)

Key:
[1] = system: THP1-Blue ISG cells; assay: Human interferon-β induction assay; assay type: cell-based; conditions: total cumulative IFN-β induction over the dose range tested (0.78 to 50 μM) in THP-1 Blue cells
Procedure: THP1-Blue ISG cells are used to measure the secretion of IFN-β into the culture supernatant following STING pathway activation. To run the assay, anti-IFN-β capture antibodies were coated on 96 well MultiArray plates (Mesoscale Discovery). After a one hour incubation, plates were washed and 50 μL supernatant from the STING human cell reporter assay plates or IFN-β standards were mixed with 20 μL Sulfotag-conjugated detection antibody in the coated plates. Plates were incubated, shaking for 2 h, washed, and read buffer was applied. Electrochemiluminescence was measured on the SectorImager.

[2] = system: primary human PBMC; assay: PBMC activation, CD54 upregulation on monocytes by flow cytometry; assay type: cell-based; conditions: 20 μM, 48 h, relative to resting cells
Procedure: Concurrently, PBMC were isolated as described previously. To stimulate the PBMC, 10,000,000 cells were dispensed into 400 μL/well of flat-bottom, tissue culture treated, 24-well plates. Test compounds were added in a volume of 100 μL, then the cultures were incubated for 48 h at 37° C., 5% CO2. Supernatants were harvested. Cells were measured for activation marker upregulation using flow cytometery. Briefly, cells were stained with fluorescently labeled antibodies directed to CD56, CD19, CD3, CD8a, CD14, CD69, CD54, CD161, CD4 and CD80. Samples were analyzed on an Attune N×T flow cytometer (Thermo Fisher, Carlsbad, Calif.)
PBMCs were stimulated with 20 μM of CDN for 48 h. Cells were assessed by flow cytometry for upregulation of CD54 on monocytes. The fold increase in Mean Fluoresence Intensity was calculated relative to the levels on resting cells. The data is an average of two independent donors.

[3] = system: human STING pathway in THP1-ISG cells; assay: STING human cell reporter assay; assay type: cell-based; conditions: SEAP reporter, 24 h
Procedure: Agonism of the human STING pathway is assessed in THP1-ISG cells (Invivogen, cat #thp-isg) derived from human THP1 monocyte cell line by stable integration of an interferon regulatory factor (IRF)-inducible SEAP reporter construct. THP1-Blue ISG cells express a secreted embryonic alkaline phosphatase (SEAP) reporter gene under the control of an ISG54 minimal promoter in conjunction with five interferon (IFN)-stimulated response elements. As a result, THP1-Blue ISG cells allow the monitoring of IRF activation by determining the activity of SEAP. The levels of IRF-induced SEAP in the cell culture supernatant are readily assessed with alkaline phosphatase detection medium, a SEAP detection reagent. These cells are resistant to Zeocin. […] To run the assay, 60,000 cells were dispensed in 30 μL/well of a white, opaque bottom tissue culture treated 384-well plate.
Test compounds were added in a volume of 10 μL (1% DMSO final concentration). Compounds are initially prepared in 100% DMSO, spotted on an intermediate dilution plate and then diluted in media prior to transfer. The assay was incubated for 24 h at 37° C., 5% CO2 then plates were centrifuged at 1200 rpm (120×g) for 5 min. […]

[4] = biological target: human STING (Homo sapiens (Human), UniProt Q86WV6, H232R); assay: human STING SPA binding assay
Sequence of human STING (Q86WV6 139-379 H232R): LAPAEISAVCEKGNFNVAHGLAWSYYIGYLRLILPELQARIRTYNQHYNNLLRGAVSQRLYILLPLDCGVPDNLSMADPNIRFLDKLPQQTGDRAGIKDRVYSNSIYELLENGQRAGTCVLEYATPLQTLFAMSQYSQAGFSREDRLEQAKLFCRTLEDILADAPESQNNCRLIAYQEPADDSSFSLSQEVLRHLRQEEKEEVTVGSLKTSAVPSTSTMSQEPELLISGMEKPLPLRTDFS
Procedure: The HIS tag is cleaved after purification and prior to biotinylation.
Test compounds (80 nL) were added with an acoustic dispenser (EDC Biosystems) in 100% DMSO for a final assay concentration of 1% DMSO. Plates were centrifuged for 1 min and incubated for 60 min at room temperature. Finally, (2 μL) polystyrene streptavidin SPA beads (PerkinElmer RPNQ0306) were added and plates were sealed and centrifuged for 1 min at room temperature. Plates were dark adapted for 2 h and read on a ViewLux (Perkin Elmer) for 12 min per plate.

| Compound | human IFN-β (ranking value) [1] | other results |
| --- | --- | --- |
| COC1C2COP(=O)(S)OC3C(COP(=O)(S)OC1C(n1cnc4c(=O)[nH]c(N)nc41)O2)OC(n1cnc2c(N)ncnc21)C3F (single isomer, unassigned) [Compound 6c] | 4266 |  |
| COC1C2COP(=O)(O)OC3C(COP(=O)(O)OC1C(n1cnc4c(=O)[nH]c(N)nc41)O2)OC(n1cnc2c(N)ncnc21)C3F (centres unmarked) [Compound 5] | 1024 |  |
| COC1C2COP(=O)(S)OC3C(COP(=O)(S)OC1C(n1cnc4c(=O)[nH]c(N)nc41)O2)OC(n1cnc2c(N)ncnc21)C3F (single isomer, unassigned) [Compound 6d] | 3039 |  |
| Nc1nc2c(ncn2[C@@H]2O[C@@H]3COP(=O)(O)O[C@H]4[C@@H](O)[C@H](n5cnc6c(N)ncnc65)O[C@@H]4COP(=O)(O)O[C@@H]2[C@@H]3O)c(=O)[nH]1 [4-2′3′-cGAMP, (2′,3′)cyclic guanosine monophosphate-adenosine monophosphate] |  | MFI, fold increase of CD54 on monocytes [2]: 4.5 |
| COC1C2COP(=O)(S)OC3C(COP(=O)(S)OC1C(n1cnc4c(=O)[nH]c(N)nc41)O2)OC(n1cnc2c(N)ncnc21)C3F (single isomer, unassigned) [Compound 6b] | 904 |  |
| COC1C2COP(=O)(S)OC3C(COP(=O)(S)OC1C(n1cnc4c(=O)[nH]c(N)nc41)O2)OC(n1cnc2c(N)ncnc21)C3F (single isomer, unassigned) [Compound 6a] | 2427 |  |
| CC1(O)C2OP(=O)(O)OCC3OC(n4cnc5c(=O)[nH]c(N)nc54)C(OP(=O)(O)OCC2OC1n1cnc2c(N)ncnc21)C3O (centres unmarked) [Compound 1] |  | EC50 [3]: 1.81 µM; IC50 [4]: 54.5 µM |
